Patent US20230118459A1, “ANTIVIRAL TREATMENT” (priority 2020, published 2023)

Key:
HCV = conditions: Anggakusuma et al., 2013, read-out: EC50 inhibiting binding and fusion; cited from earlier work
[1] = tested on: virus (not named) in Huh7 cells; assay: Cytopathic effect assay; conditions: for inhibition at 14 µM: read-out: average inhibition (%) at 14 μM; for inhibition at 29 µM: read-out: average inhibition (%) at 29 μM; for average inhibition (%) at 14 μM / average inhibition (%) at 29 μM: virus added directly after compound
[2] = tested on: enveloped viruses, including HIV, IAV, VSV, and SARS; conditions: VSV (Harada, 2005), SARS (Cinatl et al., 2003); cited from earlier work
[3] = Huh7 cells, cytopathic effect, 7 days at 33° C.

Compound	EC30 [1, 3] [µM]	average inhibition (%) at 14 μM ([1]; Huh7 cells, 7 days at 33° C.) [%]	average inhibition (%) at 29 μM ([1]; Huh7 cells, 7 days at 33° C.) [%]	also measured
COc1cc(/C=C/C(=O)CC(=O)/C=C/c2ccc(O)c(OC)c2)ccc1O [Curcumin]				EC50 (HCV): 8.46 µM
CCCCCCCCCCCCCC(=O)NCCC[N+](C)(C)Cc1ccccc1 [ES001071, myristamido-propyl-dimethyl-benzyl-ammonium chloride, reference compound]	22.7			inhibition at 14 µM ([1]; Huh-7, 168 h): 8.7%; inhibition at 29 µM ([1]; Huh-7, 168 h): 35.9%
CCCCCCCCCCCCCC(=O)NCCC[N+](C)(C)Cc1ccccc1.C[C@H](O)C(=O)[O-] [ES001391, Myramistin (L)-lactate]	45.1	0	18.5	
CCCCCCCC(=O)[O-].CCCCCCCCCCCCCC(=O)NCCC[N+](C)(C)Cc1ccccc1 [ES001639, Myramistin capiylate]	22.3	17.9	42.1	
CCCCCCCCCCCCCC(=O)NCCC[N+](C)(C)Cc1ccccc1.O=C([O-])CO [ES001652, Myramistin glycolate]	23.8	17.0	36.2	
CCCCCCCCCCCCCC(=O)NCCC[N+](C)(C)Cc1ccc(C)cc1 [ES001706, N-(3-(dimethyl 4-methylbenzylammonio)propyl)myristamide chloride]				inhibition at 14 µM ([1]; Huh-7, 168 h): 23.8%; inhibition at 29 µM ([1]; Huh-7, 168 h): 34.1%
CCCCCCCCCCCCCC(=O)NCCC[N+](C)(C)Cc1ccc(C#N)cc1 [ES001713, N-(3-(dimethyl 4-cyanobenzylammonio)propyl)myristamide chloride]	11.8			EC50 ([1]; Huh-7, 168 h): 16.7 µM; inhibition at 14 µM ([1]; Huh-7, 168 h): 38.3%; inhibition at 29 µM ([1]; Huh-7, 168 h): 79.4%
CCCCCCCCCCCCCC(=O)NCCC[N+](C)(C)CCc1ccccc1.[Cl-] [ES001726, N-(3-(dimethylethylenephenylammonio)propyl)myristamide chloride]	15.7	26.4	14.9	
CC1(C)[C@@H](O[C@H]2O[C@H](C(=O)O)[C@@H](O)[C@H](O)[C@H]2O[C@@H]2O[C@H](C(=O)O)[C@@H](O)[C@H](O)[C@H]2O)CC[C@]2(C)[C@H]3C(=O)C=C4[C@@H]5C[C@@](C)(C(=O)O)CC[C@]5(C)CC[C@@]4(C)[C@]3(C)CC[C@@H]12 [Glycyrrhizin]				activity against enveloped viruses [2]: weakly active
Myramistin citrate [ES001637]	21.1	19.5	36.8	
N-(3-(dimethyl 3-methylenethiophenyl ammonio)propyl)myristamide chloride [ES001716]	21.1	13.3	51.8	EC50 [1, 3]: 28.1 µM
N-(3-(dimethyl 4-methylenenaphthyl ammonio)propyl)myristamide chloride [ES001715]	10.0	45.4	0	
